# Assay results: US3974140A, “Ureidoacetamido-penicillins” (Bayer Aktiengesellschaft, priority 1970, dated 1976)
# Where “and” joins values, the source holds several entries; their conditions need not be identical. Equal values may be shown once.
# Legend:
# Assay in all cases: MIC, liquid medium test tube series dilution test
# [1] = system: E. coli 14; format: cell-based; conditions: E. coli 14, 24 hours, 37°C
# In short: (§1)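 Penicillins were serially diluted in test tubes of complete liquid medium, inoculated, incubated 24 hours at 37°C, and inspected; the non-turbid tube of the series marked the minimum inhibitory concentration (units/ml).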
# [2] = system: E. coli 183/58; format: cell-based; conditions: E. coli 183/58, 24 hours, 37°C
# In short: as §1
# [3] = system: E. coli A 261; format: cell-based; conditions: E. coli A 261, 24 hours, 37°C
# In short: as §1
# [4] = system: E. coli C 165; format: cell-based; conditions: E. coli C 165, 24 hours, 37°C
# In short: as §1
# [5] = system: Klebsiella 63; format: cell-based; conditions: Klebsiella 63, 24 hours, 37°C
# In short: as §1
# [6] = system: Klebsiella K 10; format: cell-based; conditions: Klebsiella K 10, 24 hours, 37°C
# In short: as §1
# [7] = system: Streptoc. faec. ATCC 9790; format: cell-based; conditions: Strep. faec. (Enterococcus) ATCC 9790, 24 hours, 37°C
# In short: as §1
# [8] = system: Proteus vulg. 1017; format: cell-based, Proteus vulgaris; conditions: Proteus vulg. 1017, 24 hours, 37°C
# In short: as §1
# [9] = system: Proteus vulg. 3400; format: cell-based, Proteus vulgaris; conditions: Proteus vulg. 3400, 24 hours, 37°C
# In short: as §1
# [10] = system: Psdm. aerug. Bonn; format: cell-based, Pseudomonas aerug.; conditions: 24 hours, 37°C
# In short: as §1
# [11] = system: Psdm. aerug. Walter; format: cell-based, Pseudomonas aerug.; conditions: 24 hours, 37°C
# In short: as §1
# [12] = system: Staph. aureus 133; format: cell-based, Staphylococcus aureus; conditions: Staph. aureus 133, 24 hours, 37°C
# In short: as §1
Compound,MIC [1],MIC [2],MIC [3],MIC [4],MIC [5],MIC [6],MIC [7],MIC [8],MIC [9],MIC [10],MIC [11],MIC [12]
"CN(C(=O)N[C@@H](C(=O)N[C@@H]1C(=O)N2[C@@H]1SC(C)(C)[C@@H]2C(=O)O)c1ccccc1)C(=O)c1cccs1 [Example 37, Sodium D(-)-α-[3-(2-thenoyl)-3-methyl-ureido]-benzylpenicillin]",< 0.8 units/ml,0.8-4 units/ml,> 500 units/ml,0.8-4 units/ml,4-20 units/ml,20-100 units/ml,20-100 units/ml,4-20 units/ml,4-20 units/ml,4-20 units/ml,4-20 units/ml,< 0.8 units/ml
Cc1noc(C)c1C(=O)N(C)C(=O)N[C@@H](C(=O)N[C@@H]1C(=O)N2[C@@H]1SC(C)(C)[C@@H]2C(=O)O)c1ccccc1 [Example 38],0.8-4 units/ml,4-20 units/ml,> 500 units/ml,4-20 units/ml,20-100 units/ml,20-100 units/ml,100-500 units/ml,20-100 units/ml,20-100 units/ml,20-100 units/ml,20-100 units/ml,< 0.8 units/ml
"Cc1ccc(C(NC(=O)N(C)C(=O)c2ccccc2F)C(=O)N[C@@H]2C(=O)N3[C@@H]2SC(C)(C)[C@@H]3C(=O)O)cc1 (stereo partly drawn) [Example 44, Sodium α-(3-o-fluorobenzoyl-3-methyl-ureido)-α-p-tolyl-methylpenicillin]",6.25 units/ml,25 units/ml,400 units/ml,25 units/ml,50 units/ml,50 units/ml,100 units/ml,50 units/ml,25 units/ml,50 units/ml,50 units/ml,1.6 units/ml
"Cc1ccc(C(=O)N(C)C(=O)N[C@@H](C(=O)N[C@@H]2C(=O)N3[C@@H]2SC(C)(C)[C@@H]3C(=O)O)c2ccccc2)cc1[N+](=O)[O-] [Example 70, Sodium D(-)-α-(3-[m-nitro-p-methyl]-benzoyl-3-methyl-ureido)-benzylpenicillin]",3.12 units/ml,3.12 units/ml,200 units/ml,6.25 units/ml,12.5 units/ml,25 units/ml,100 units/ml,12.5 units/ml,12.5 units/ml,12.5 units/ml,100 units/ml,< 0.78 units/ml
"CC1(C)S[C@@H]2[C@H](NC(=O)[C@H](NC(=O)N(CCCl)C(=O)CCC(Cl)(Cl)Cl)c3ccccc3)C(=O)N2[C@H]1C(=O)O [Example 72, Sodium D(-)-α-(3-γ-trichlorobutyryl-3-β-chloroethyl-ureido)-benzylpenicillin]",6.25 units/ml,12.5 units/ml,400 units/ml,25 units/ml,50 units/ml,100 units/ml,100 units/ml,50 units/ml,200 units/ml,50 units/ml,400 units/ml,< 0.78 units/ml
"CC(=O)N(C(=O)N[C@@H](C(=O)N[C@@H]1C(=O)N2[C@@H]1SC(C)(C)[C@@H]2C(=O)O)c1ccccc1)c1ccccc1 [Example 130, Sodium D(-)-α-(3-acetyl-3-phenyl-ureido)-benzylpenicillin]",12.5 units/ml,100 units/ml,> 400 units/ml,100 units/ml,50 units/ml,25 units/ml,50 units/ml,200 units/ml,400 units/ml,200 units/ml,200 units/ml,< 0.8 units/ml

# Results, then the compound that gave them:
MIC [1],MIC [2],MIC [3],MIC [4],MIC [5],MIC [6],MIC [7],MIC [8],MIC [9],MIC [10],MIC [11],MIC [12],Compound
1.56 units/ml,3.12 units/ml,400 units/ml,6.25 units/ml,12.5 units/ml and 25 units/ml,50 units/ml,100 units/ml,12.5 units/ml,25 units/ml,12.5 units/ml,100 units/ml,< 0.78 units/ml,"CN(C(=O)CCC(F)(F)F)C(=O)N[C@@H](C(=O)N[C@@H]1C(=O)N2[C@@H]1SC(C)(C)[C@@H]2C(=O)O)c1ccccc1 [Example 69, Sodium D(-)-α-(3-γ-trifluorobutyryl-3-methyl-ureido)-benzylpenicillin]"
> 400 units/ml,> 400 units/ml,> 400 units/ml,> 400 units/ml,> 400 units/ml,> 400 units/ml,> 400 units/ml,> 400 units/ml,> 400 units/ml,> 400 units/ml,400 units/ml,200 units/ml,"CCCCCCCCCCCCCCCCCC(=O)N(C)C(=O)N[C@@H](C(=O)N[C@@H]1C(=O)N2[C@@H]1SC(C)(C)[C@@H]2C(=O)O)c1ccccc1 [Example 71, Sodium D(-)-α-(3-stearinoyl-3-methyl-ureido)-benzylpenicillin]"
100 units/ml,> 400 units/ml,> 400 units/ml,> 400 units/ml,> 400 units/ml,> 400 units/ml,> 400 units/ml,> 400 units/ml,> 400 units/ml,> 400 units/ml,> 400 units/ml,25 units/ml,"CCCCCCCCCCCCCCCCN(C(C)=O)C(=O)N[C@@H](C(=O)N[C@@H]1C(=O)N2[C@@H]1SC(C)(C)[C@@H]2C(=O)O)c1ccccc1 [Example 74, Sodium D(-)-α-(3-acetyl-3-hexadecyl-ureido)-benzylpenicillin]"
1.56 units/ml,3.12 units/ml,400 units/ml,6.25 units/ml,25 units/ml,50 units/ml,50 units/ml,12.5 units/ml,6.25 units/ml,25 units/ml,50 units/ml,< 0.78 units/ml,"CN(C(=O)CCCCl)C(=O)N[C@@H](C(=O)N[C@@H]1C(=O)N2[C@@H]1SC(C)(C)[C@@H]2C(=O)O)c1ccccc1 [Example 88, Sodium D(-)-α-(3-γ-chlorobutyryl-3-methyl-ureido)-benzylpenicillin]"
1.56 units/ml,1.56 units/ml,400 units/ml,6.25 units/ml,12.5 units/ml,25 units/ml,100 units/ml,3.12 units/ml,12.5 units/ml,25 units/ml,50 units/ml,< 0.78 units/ml,"CN(C(=O)CCC(Cl)(Cl)Cl)C(=O)N[C@@H](C(=O)N[C@@H]1C(=O)N2[C@@H]1SC(C)(C)[C@@H]2C(=O)O)c1ccccc1 [Example 89, Sodium (-)-α-(3-γ-trichlorobutyryl-3-methyl-ureido)-benzylpenicillin]"
